Laboratory results as given in US7867702B2, “Screen for novel protein inhibitors based upon engineered cell line containing an inducible overactivity gene and compensatory gene” (priority 2003, dated 2011).

B1: Domain I: N-terminal domain (amino acids 1 to 86) of wild type DnaA, biotin-tagged, expressed in SF58; poisons initiation complexes (protein, UniProt P03004 1-86, looked up, fragment)
chain: MSLSLWQQCLARLQDELPATEFSMWIRPLQAELSDNTLALYAPNRFVLDWVRDKYLNNINGLLTSFCGADAPQLRFEVGTKPVTQT
modifications: biotin tag
notes: N-terminal domain (amino acids 1 to 86) of wild type DnaA, biotin-tagged, expressed in SF58; poisons initiation complexes

Legend:
[1] = system: SF58; assay: Microtiter-format growth of SF58 with IPTG (assay validation, positive control); type: cell-based, E. coli; conditions: 0.31 mM IPTG and above vs 0 to 0.16 mM IPTG, 30° C., after 18 hours
Procedure: The first part of an assay transfer & validation procedure involves the reproduction of the results in microtiter format. […] All 48 replicate cultures of the same microtiter plate of FIG. 3 behaved similarly. […] In addition, after 18 h (6.4×10^4 s) the OD's of the induced cultures are well above controls.
A series of experiments were then performed to assess the signal as a function of the starting inoculum (i.e. the theoretical OD of the culture present in a microtiter well). The data (not shown) indicate that there is no significant difference in the SF58-IPTG growth curve if the inoculum is obtained by dilution of an overnight culture or of an actively growing 42° C.-culture. Consequently, the time for measuring the OD was set at 18 h, and the procedure used was to grow 5 μl of SF53 or SF58 in 30 ml glucose CAA medium (with […]) overnight at 42° C. until the OD600 was 1.2. The stock was diluted 1:100 in glucose CAA (without […]). 90 μl of this was dispensed into each well, with 10 μl of sample. […]
Following the procedure outlined above, a screening of 4240 microbial extracts was performed. Each 96-microtiter plate contained as controls four wells inoculated with SF53, four wells inoculated with SF58 and 8 wells inoculated with SF58 in the presence of 2.5 mM IPTG. […]

[2] = system: strain SF58 (dnaA219, rnh::cam/pdnaA[1-86]-biotin); assay: Growth of strain SF58 at 30° C. with IPTG-induced Domain I of DnaA (flask cultures, OD450); type: cell-based, E. coli; conditions: for difference in OD450, induced vs uninduced culture: 10 parallel cultures
Procedure: The following experiments were performed to provide evidence that strain SF53 will survive when a drug has inactivated the DnaA protein. Such evidence can be obtained without a lead drug, by using production of the N-terminal domain (Domain I amino acids 1 to 86) of wild type DnaA. Domain I of DnaA is important for oligomerization and formation of proper initiation complexes. […] Strain SF53 was transformed with a plasmid carrying an IPTG-inducible gene encoding biotin-tagged Domain I (pBEX5BA-dnaA[1-86]-biotin), transformants checked, and the strain named SF58 (Table 1).
The growth of strain SF58 was tested at three different concentrations of IPTG. An overnight culture of strain SF58 grown at 42° C. was diluted 1:1000 in fresh ABB1 glucose CAA medium and split into five flasks. Culture nos. 1 to 4 were grown at 30° C. and culture no. 5 at 42° C. IPTG was added to culture no. 2, 3 and 4 at a concentration of 0.25, 0.5 and 1 mM, respectively, at the time of dilution. Growth curves were followed by measurement of OD450 for 8 hours. […] The OD450 was less than 0.03 at all time points.
The concentrations of Domain I present after 4 generations growth in the presence of the three different concentrations of IPTG, was assessed by Western blot. A ten-fold difference in OD450 between the culture grown without IPTG (culture no. 1) and the culture grown with 1 mM IPTG (culture no. 4) was obtained after about 10 hours. Thus, when performing a drug screen with the dnaA219rnh strain, a positive hit will be detected by a ten-fold difference in OD450 after about 10 hours in the presence of the drug.
To determine the robustness of the screen and also at which time, in a high throughput assay, it is optimal to measure the difference in OD450 we made the following measurements (FIG. 2). Essentially the same experiment as in FIG. 1 was performed, but OD450 was measured at only three time points, 20 h, 27 h and 48 h, in 10 different parallel cultures. A 20-40 fold difference was obtained after 20 h and after 27 h. After 48 h a background in the uninduced culture started to appear and the difference dropped to about 5 fold. Therefore, measurements of OD450 in high throughput screens should be performed after 10-30 hours of incubation.

| Molecule | OD405 of induced SF58 cultures compared with controls [1] | difference in OD450 between culture grown without IPTG and culture grown with IPTG ([2]; 1 mM IPTG, 30° C., after about 10 hours) | growth rate of SF58 cultures grown at 30° C. with IPTG ([2]; IPTG 0.25, 0.5 and 1 mM, 30° C., OD450 followed for 8 hours) | difference in OD450, induced vs uninduced culture ([2]; after 20 h, 30° C.) | difference in OD450, induced vs uninduced culture ([2]; after 27 h, 30° C.) | difference in OD450, induced vs uninduced culture ([2]; after 48 h, 30° C.) | growth of the strain at 30° C. ([2]; induction of Domain I by IPTG in SF58, 30° C.) |
| --- | --- | --- | --- | --- | --- | --- | --- |
| CC(C)S[C@@H]1O[C@H](CO)[C@H](O)[C@H](O)[C@H]1O [IPTG] | significantly higher than controls | ten-fold | increasing growth rates with increasing concentration of IPTG | 20-40 fold | 20-40 fold | about 5 fold |  |
| B1 |  |  |  |  |  |  | restored |
